{"source": "patent EP1004306A2", "about": "“Estrogen agonists/antagonists” (Pfizer Products Inc., priority 1998, dated 2000)", "key": {"[1]": {"system": "adult ORX rats", "assay": "Male osteoporosis model: prostate weight and histology", "format": "in vivo, Sprague-Dawley male rats", "conditions": "10 and 100 µg/kg/d p.o. for 60 days; compared to ORX controls", "protocol": "(§1) Fifty Sprague-Dawley male rats were sham-operated (n=10) or ORX (n=40) at 10 months of age. Ten rats were autopsied on day 0 as basal controls. ORX rats were treated (daily p.o.) with either vehicle (10% ethanol in water) or (-)Cis-6-phenyl-5-[4-(2-pyrrolidin-1-yl-ethoxy)phenyl]-5,6,7,8-tetrahydronaphthalen-2-ol at 1, 10, or 100 µg/kg/day for 60 days. There were 10 rats per each subgroup. all rats were given subcutaneous injections with 10 mg/kg of calcein (Sigma Chemical Co., St. Louis, MO) on 13 and 3 days before autopsy. • 1) Total serum cholesterol: Total serum cholesterol was determined using a high performance cholesterol colormetic assay (Boehringer Mannheim Biochemicals, Indianapolis, IN). • 2) Prostate weight: The prostate weight was determined immediately at autopsy. • 3) Femoral Bone Mineral Measurements: The right femur from each rat was removed at autopsy and scanned using dual energy x-ray absorptiometry (DEXA, QDR 1000/W, Hologic Inc., Waltham, MA) equipped with \"Regional High Resolution Scan\" software (Hologic Inc., Waltham, MA). The scan field size is 5.08 x 1.902 cm, resolution was 0.0254 x 0.0127 cm and scan speed is 7.25 mim/second. […]"}, "[2]": {"system": "adult ORX rats", "assay": "Male osteoporosis model: femoral bone mineral measurements (DEXA)", "format": "in vivo, Sprague-Dawley male rats", "conditions": "10 or 100 µg/kg/day p.o. for 60 days; compared to ORX controls", "protocol": "as §1"}, "[3]": {"system": "OVX rats", "assay": "Prevention of bone loss in OVX rats (female bone mineral density, DEXA)", "format": "in vivo", "conditions": "Rattus norvegicus, 672 h, oral, read-out: oral ED50, prevents bone loss in OVX rats", "from_the_text": "Bone mineral density, a measure of bone mineral content, accounts for greater than 80% of a bone's strength. Loss of bone mineral density with age and/or disease reduces a bone's strength and renders it more prone to fracture. Bone mineral content is accurately measured in people and animals by dual x-ray absorptiometry (DEXA) such that changes as little as 1% can be quantified. We have utilized DEXA to evaluate changes in bone mineral density due to estrogen deficiency following ovariectomy (surgical removal of ovaries) and treatment with vehicle, estradiol (E2), keoxifen (raloxifen), or other estrogen agonists. The purpose of these studies is to evaluate the ability of the compounds of this invention to prevent estrogen deficiency bone loss as measured by DEXA. Female (S-D) rats 4-6 months of age undergo bilateral ovariectomy or sham surgery and allowed to recover from anesthesia. […] (Hologic, Inc. Waltham, MA) and bone mineral density is determined in the distal portion of the femur at a site from 1cm to 2cm from the distal end of the femur using the high resolution software supplied by Hologic. Bone mineral density is determined by dividing the bone mineral content by the bone area of the distal femur. […] Mean bone mineral density is obtained for each animal and statistical differences (p<0.05) from the vehicle-treated ovariectomy and sham-operated group were determined by t test."}, "[4]": {"system": "adult ORX rats", "assay": "Male osteoporosis model: total serum cholesterol", "format": "in vivo, Sprague-Dawley male rats", "conditions": "for decrease of total serum cholesterol: ORX rats", "protocol": "as §1, with “mim/second. The femoral scan images were analyzed and bone area, bone mineral content (BMC), and bone mineral density (BMD) of whole femora (WF), distal femoral metaphyses (DFM), femoral shaft (FS) were determined according to the method described in H. Z. Ke et al., Droloxifene, a New Estrogen Antagonist/Agonist, Prevents Bone Loss in Ovariectomized Rats. ENDOCRINOLOGY 136;2435-2441, 1995. • 4) Third Lumbar Vertebral Body (LV3) Histomorphometry: The LV3 was removed at autopsy, dissected free of muscle, fixed in 70% ethanol, dehydrated in graded concentrations of ethanol, defatted in acetone, then embedded in methyl methacrylate (Eastman Organic Chemicals, Rochester, NY). Longitudinal sections of LV3 at 4 and 10 µm thickness were cut using Reichert-Jung Polycut S microtome. One 4 µm and one 10 µm sections from each rat will be used for cancellous bone histomorphometry.” for “mim/second.”"}, "[5]": {"system": "adult ORX rats", "assay": "Male osteoporosis model: compression test of fifth lumbar vertebral body (LV5)", "format": "in vivo, Sprague-Dawley male rats", "conditions": "for Maximal Load of LV5: ORX rats, daily p.o. 60 days, p < 0.05 vs. ORX", "protocol": "as §1, with “ORX rats were treated (daily p.o.) with either vehicle (10% ethanol in water) or (-)Cis-6-phenyl-5-[4-(2-pyrrolidin-1-yl-ethoxy)phenyl]-5,6,7,8-tetrahydronaphthalen-2-ol at 1, 10, or 100 µg/kg/day for 60 days.” left out, “mim/second. The femoral scan images were analyzed and bone area, bone mineral content (BMC), and bone mineral density (BMD) of whole femora (WF), distal femoral metaphyses (DFM), femoral shaft (FS) were determined according to the method described in H. Z. Ke et al., Droloxifene, a New Estrogen Antagonist/Agonist, Prevents Bone Loss in Ovariectomized Rats. ENDOCRINOLOGY 136;2435-2441, 1995. • 4) Third Lumbar Vertebral Body (LV3) Histomorphometry: The LV3 was removed at autopsy, dissected free of muscle, fixed in 70% ethanol, dehydrated in graded concentrations of ethanol, defatted in acetone, then embedded in methyl methacrylate (Eastman Organic Chemicals, Rochester, NY).” for “mim/second.”\n• 1. […] A compression test was used to determine the mechanical properties of LV5, as described by Mosekilde et al. (Mosekilde, L., Danielsen, C. C., Gasser, J. The effect on vertebral bone mass and strength of long term treatment with antiresorptive agents, human PTH (1-38), and combination therapy, assessed in aged ovariectomized rats. Endocrinol 1994; 134:2126-2134). […] The maximal load and stiffness were calculated from the load-displacement curve."}, "[6]": {"assay": "Male osteoporosis model: body weight", "format": "in vivo, Sprague-Dawley male rats", "conditions": "1, 10, 100 µg/kg/day p.o. for 60 days; compared to both sham and ORX controls", "protocol": "as §1"}, "[7]": {"system": "adult ORX rats", "assay": "Male osteoporosis model: third lumbar vertebral body (LV3) histomorphometry", "format": "in vivo, Sprague-Dawley male rats", "conditions": "for Activation Frequency: ORX rats, daily p.o. 60 days", "protocol": "Fifty Sprague-Dawley male rats were sham-operated (n=10) or ORX (n=40) at 10 months of age. Ten rats were autopsied on day 0 as basal controls. […] There were 10 rats per each subgroup. all rats were given subcutaneous injections with 10 mg/kg of calcein (Sigma Chemical Co., St. Louis, MO) on 13 and 3 days before autopsy. • 1) Total serum cholesterol: Total serum cholesterol was determined using a high performance cholesterol colormetic assay (Boehringer Mannheim Biochemicals, Indianapolis, IN). • 2) Prostate weight: The prostate weight was determined immediately at autopsy. • 3) Femoral Bone Mineral Measurements: The right femur from each rat was removed at autopsy and scanned using dual energy x-ray absorptiometry (DEXA, QDR 1000/W, Hologic Inc., Waltham, MA) equipped with \"Regional High Resolution Scan\" software (Hologic Inc., Waltham, MA). The scan field size is 5.08 x 1.902 cm, resolution was 0.0254 x 0.0127 cm and scan speed is 7.25 mim/second. The femoral scan images were analyzed and bone area, bone mineral content (BMC), and bone mineral density (BMD) of whole femora (WF), distal femoral metaphyses (DFM), femoral shaft (FS) were determined according to the method described in H. Z. Ke et al., Droloxifene, a New Estrogen Antagonist/Agonist, Prevents Bone Loss in Ovariectomized Rats. ENDOCRINOLOGY 136;2435-2441, 1995. • 4) Third Lumbar Vertebral Body (LV3) Histomorphometry: The LV3 was removed at autopsy, dissected free of muscle, fixed in 70% ethanol, dehydrated in graded concentrations of ethanol, defatted in acetone, then embedded in methyl methacrylate (Eastman Organic Chemicals, Rochester, NY). Longitudinal sections of LV3 at 4 and 10 µm thickness were cut using Reichert-Jung Polycut S microtome. One 4 µm and one 10 µm sections from each rat will be used for cancellous bone histomorphometry. The 4 µm sections were stained with modified Masson's Trichrome stain while the 10 µm sections remained unstained.\nA Bioquant OS/2 histomorphometry system (R&M Biometrics, Inc., Nashville, TN) was used for the static and dynamic histomorphometric measurements of the secondary spongiosa of the proximal tibial metaphyses between 1.2 and 3.6 mm distal to the growth plate-epiphyseal junction. The first 1.2 mm of the tibial metaphyseal region need to be omitted in order to restrict measurements to the secondary spongiosa. The 4 µm sections will be used to determine indices related to bone volume, bone structure, and bone resorption, while the 10 µm sections will be used to determine indices related to bone formation and bone turnover.\n• 1. Total metaphyseal area (TV, mm^2): metaphyseal area between 1.2 and 3.6 mm distal to the growth plate-epiphyseal junction. • 2. Trabecular bone area (BV, mm^2): total area of trabeculae within TV. • 3. Trabecular bone perimeter (BS, mm): the length of total perimeter of trabeculae. • 4. Trabecular bone volume (BV/TV,%): BV / TV x 100. • 5. Trabecular bone number (TBN,#/mm): 1.199 / 2 x BS / TV. • 6. Trabecular bone thickness (TBT, µm): (2000 / 1.199) x (BV / BS). • 7. Trabecular bone separation (TBS, µm): (2000 x 1.199) x (TV - BV).\n• 1. Osteoclast number (OCN, #): total number of osteoclast within total metaphyseal area. • 2. […] (OCP, mm): length of trabecular perimeter covered by osteoclast. • 3. Osteoclast number/mm (OCN/mm, #/mm): OCN / BS. • 4. Percent osteoclast perimeter (%OCP,%): OCP / BS x 100.\n• 1. Single-calcein labeled perimeter (SLS, mm): total length of trabecular perimeter labeled with one calcein label. • 2. Double-calcein labeled perimeter (DLS, mm): total length of trabecular perimeter labeled with two calcein labels. • 3. Inter-labeled width (ILW, µm): average distance between two calcein labels. • 4. Percent mineralizing perimeter (PMS,%):(SLS/2 + DLS) / BS x 100. • 5. Mineral apposition rate (MAR, µm/day): ILW / label interval. • 6. Bone formation rate/surface ref. (BFR/BS, µm^2/d/µm): (SLS/2 + DLS) x MAR / BS. • 7. […]"}, "[8]": {"system": "Male Sprague-Dawley rats", "assay": "Effect on prostate weight", "format": "in vivo", "protocol": "Male Sprague-Dawley rats, three months of age are administered by subcutaneous injection either vehicle (10% ethanol in water), estradiol (30 µg/kg), testosterone (1 mg/kg) or a compound of formula I daily for 14 days (n=6/group). After 14 days the animals are sacrificed, the prostate is removed, and the wet prostate weight is determined. Mean weight is determined and statistical significance (p<0.05) is determined compared to the vehicle-treated group using Student's t-test."}, "[9]": {"system": "male rats", "conditions": "treatment of male rats; cited from earlier work"}, "[10]": {"system": "male rats", "conditions": "200 and 400 mg/kg/day; cited from earlier work"}, "[11]": {"conditions": "10 or 100 µg/kg/day p.o. for 60 days, compared to ORX controls"}}, "data": [{"smiles": "Oc1ccc2c(c1)CC[C@H](c1ccccc1)[C@@H]2c1ccc(OCCN2CCCC2)cc1", "note": "[(-)Cis-6-phenyl-5-[4-(2-pyrrolidin-1-yl-ethoxy)phenyl]-5,6,7,8-tetrahydronaphthalen-2-ol]", "values": [{"measurement": "prostate histology parameters", "setting": "[1]", "value": "no effect"}, {"measurement": "prostate weight", "setting": "[1]", "value": "no effect"}, {"measurement": "age-related and ORX-induced decreases in DFBMD", "setting": "[2]", "value": "completely prevented"}, {"measurement": "ED50", "setting": "[3]", "value": "~1", "unit": "µg/kg"}, {"measurement": "decrease of total serum cholesterol", "setting": "[4]; 10 µg/kg/d p.o. for 60 days", "value": 46, "unit": "%"}, {"measurement": "decrease of total serum cholesterol", "setting": "[4]; 100 µg/kg/d p.o. for 60 days", "value": 68, "unit": "%"}, {"measurement": "total serum cholesterol", "setting": "[4]; 1, 10, 100 µg/kg/day p.o. for 60 days, compared to both sham and ORX controls", "value": "dose-dependently decreased"}, {"measurement": "age-related and ORX-induced decreases in maximal load", "setting": "[5]; [11]", "value": "completely prevented"}, {"measurement": "Maximal Load of LV5", "setting": "[5]; 10 µg dose group", "value": "393 ± 27", "unit": "N"}, {"measurement": "Maximal Load of LV5", "setting": "[5]; 100 µg dose group", "value": "393 ± 25", "unit": "N"}, {"measurement": "body weight", "setting": "[6]", "value": "dose-dependently decreased"}, {"measurement": "age-related and ORX-induced decreases in TBV", "setting": "[7]; [11]", "value": "completely prevented"}, {"measurement": "bone resorption", "setting": "[7]; [11]", "value": "significantly decreased"}, {"measurement": "bone turnover", "setting": "[7]; [11]", "value": "significantly decreased"}, {"measurement": "Activation Frequency", "setting": "[7]; 10 µg dose group", "value": "2.06 ± 0.28 #/year"}, {"measurement": "Activation Frequency", "setting": "[7]; 100 µg dose group, p < 0.05 vs. ORX", "value": "0.93 ± 0.08 # #/year"}, {"measurement": "Activation Frequency", "setting": "[7]; dose group printed as 1 mg, p < 0.05 vs. Sham", "value": "2.67 ±0.34 #/year"}]}, {"smiles": "C[C@]12CC[C@H]3[C@@H](CCC4=CC(=O)CC[C@@]43C)[C@@H]1CC[C@@H]2O", "note": "[Testosterone, testosterone]", "values": [{"measurement": "prostate weight compared to vehicle", "setting": "[8]; testosterone 1 mg/kg s.c. daily for 14 days", "value": "no effect"}]}, {"smiles": "C[C@]12CC[C@@H]3c4ccc(O)cc4CC[C@H]3[C@@H]1CC[C@@H]2O", "note": "[estrogen, estradiol]", "values": [{"measurement": "prostate weight compared to vehicle", "setting": "[8]; 30 µg/kg s.c. daily for 14 days", "value": "significantly reduces prostate weight"}]}, {"smiles": "O=C(c1ccc(OCCN2CCCCC2)cc1)c1c(-c2ccc(O)cc2)sc2cc(O)ccc12", "note": "[raloxifene, 6-hydroxy-2-(4-hydroxyphenyl)-3-[4-(2-piperidinoethoxy)benzoyl] benzo[b] thiophene]", "values": [{"measurement": "ventral prostate", "setting": "[9]", "value": "regression of the ventral prostate"}]}, {"smiles": "CC/C(=C(\\c1ccccc1)c1ccc(OCCN(C)C)cc1)c1ccccc1", "note": "[tamoxifen, 1-(4-β-dimethylaminoethoxyphenyl)-1,2-diphenyl-but-1-ene]", "values": [{"measurement": "weights of the testes and secondary sex organs", "setting": "[10]", "value": "reduces the weights of the testes and secondary sex organs"}]}]}
